Measurements: PubChem BioAssay AID330 (DTP/NCI, 2004)
“And” between values parts separate entries of the source, which are not always exact repeats. Equal values may be shown once. Toxic doses and inconclusive results are not listed. Rule for the calls: active = survival T/C of 150% or more; inactive = T/C below 125% in these data. Peptide text beside a SMILES is read from it. * marks the point of attachment. Cbz = O=C(OCc1ccccc1)*

System: P388 leukemia ip, CD2F1 mice, survival T/C
Experiment: NCI In Vivo Anticancer Drug Screen. Data for tumor model P388 Leukemia (intraperitoneal) in CD2F1 (CDF1) mice
Conditions: endpoint: median survival time, higher = longer survival
How it was run: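 Mice carrying the transplanted tumor received test compound or vehicle. Survival was recorded in each group, and the value is the treated-group measurement divided by that of the vehicle-treated control group.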

[1] = dose: 50.0 mg/kg/injection, schedule: Q01DX009 (ip), vehicle: saline with Tween-80
[2] = dose: 100.0 mg/kg/injection, schedule: Q01DX009 (ip), vehicle: saline with Tween-80
[3] = dose: 50.0 mg/kg/injection, schedule: Q01DX009 (ip), vehicle: saline
[4] = dose: 100.0 mg/kg/injection, schedule: Q01DX009 (ip), vehicle: saline
[5] = dose: 60.0 mg/kg/injection, schedule: Q01DX005 (ip), vehicle: saline with Tween-80
[6] = dose: 120.0 mg/kg/injection, schedule: Q01DX005 (ip), vehicle: saline with Tween-80
[7] = dose: 240.0 mg/kg/injection, schedule: Q01DX005 (ip), vehicle: saline with Tween-80
[8] = dose: 60.0 mg/kg/injection, schedule: Q01DX005 (ip), vehicle: Klucel (hydroxypropylcellulose) (HPC)
[9] = dose: 120.0 mg/kg/injection, schedule: Q01DX005 (ip), vehicle: Klucel (hydroxypropylcellulose) (HPC)
[10] = dose: 240.0 mg/kg/injection, schedule: Q01DX005 (ip), vehicle: Klucel (hydroxypropylcellulose) (HPC)
[11] = dose: 50.0 mg/kg/injection, schedule: Q01DX005 (ip), vehicle: saline with Tween-80

Measured: T/C

CNC(=O)OCc1nn(-c2ccc(Cl)cc2)c(C)c1COC(=O)NC
inactive: dose: 1.56 mg/kg/injection, schedule: Q01DX009 (ip), vehicle: distilled water + Tween-80 103 % of control | dose: 3.12 mg/kg/injection, schedule: Q01DX009 (ip), vehicle: distilled water + Tween-80 100 % of control | dose: 6.25 mg/kg/injection, schedule: Q01DX009 (ip), vehicle: distilled water + Tween-80 97 % of control | dose: 12.5 mg/kg/injection, schedule: Q01DX009 (ip), vehicle: distilled water + Tween-80 101 % of control and 89 % of control and 95 % of control | dose: 25.0 mg/kg/injection, schedule: Q01DX009 (ip), vehicle: distilled water + Tween-80 93 % of control | dose: 100.0 mg/kg/injection, schedule: Q01DX009 (ip), vehicle: distilled water + Tween-80 101 % of control and 93 % of control | dose: 200.0 mg/kg/injection, schedule: Q01DX009 (ip), vehicle: distilled water + Tween-80 102 % of control and 108 % of control

CCCCCCCCCCCCCCCCOc1ccc(/C=N/Nc2ccccc2)cc1OC
inactive: [1] 88 % of control | [2] 93 % of control

O=C(O)c1c[nH]c2cc(O)ccc2c1=O
inactive: dose: 12.5 mg/kg/injection, schedule: Q01DX009 (ip), vehicle: saline with Tween-80 98 % of control | dose: 25.0 mg/kg/injection, schedule: Q01DX009 (ip), vehicle: saline with Tween-80 96 % of control | [1] 103 % of control | [3] 103 % of control | [4] 101 % of control | dose: 200.0 mg/kg/injection, schedule: Q01DX009 (ip), vehicle: saline 95 % of control

COc1ccc2c(NCCNc3c4ccccc4nc4cc(OC)ccc34)c3ccccc3nc2c1
inactive: dose: 0.62 mg/kg/injection, schedule: Q01DX009 (ip), vehicle: other 90 % of control | dose: 1.25 mg/kg/injection, schedule: Q01DX009 (ip), vehicle: other 90 % of control | dose: 2.5 mg/kg/injection, schedule: Q01DX009 (ip), vehicle: other 96 % of control | dose: 5.0 mg/kg/injection, schedule: Q01DX009 (ip), vehicle: other 100 % of control | dose: 10.0 mg/kg/injection, schedule: Q01DX009 (ip), vehicle: other 106 % of control | dose: 20.0 mg/kg/injection, schedule: Q01DX009 (ip), vehicle: other 96 % of control

CN=C(N)N/N=C(\c1ccc(Cl)cc1)c1ccc([N+](=O)[O-])cc1Cl
inactive: dose: 25.0 mg/kg/injection, schedule: Q04DX002 (ip), vehicle: saline with Tween-80 100 % of control | dose: 50.0 mg/kg/injection, schedule: Q04DX002 (ip), vehicle: saline with Tween-80 101 % of control

COC12C=CC(CC1)C1C(=O)C=CC(=O)C12 (stereo unspecified)
inactive: [5] 105 % of control | [6] 105 % of control | [7] 112 % of control

ClC(Cl)=Nc1ccccc1
inactive: dose: 25.0 mg/kg/injection, schedule: Q01DX009 (ip), vehicle: Klucel (hydroxypropylcellulose) (HPC) 103 % of control | dose: 50.0 mg/kg/injection, schedule: Q01DX009 (ip), vehicle: Klucel (hydroxypropylcellulose) (HPC) 103 % of control | dose: 100.0 mg/kg/injection, schedule: Q01DX009 (ip), vehicle: Klucel (hydroxypropylcellulose) (HPC) 110 % of control | dose: 200.0 mg/kg/injection, schedule: Q01DX009 (ip), vehicle: Klucel (hydroxypropylcellulose) (HPC) 93 % of control

Cc1c(-c2ccccc2)nc2sccn12
inactive: dose: 25.0 mg/kg/injection, schedule: Q01DX009 (ip), vehicle: saline 102 % of control | [3] 102 % of control | [4] 96 % of control

NC1[N-]C(C2CCCC[N-]2)CC2C(Cl)CCCC12.O=[N+]([O-])O.O=[N+]([O-])O.[Cu+2] (stereo unspecified)
inactive: dose: 6.25 mg/kg/injection, schedule: Q04DX002 (ip), vehicle: suspension in saline 101 % of control | dose: 12.5 mg/kg/injection, schedule: Q04DX002 (ip), vehicle: suspension in saline 111 % of control

CC(C)Cc1ncc(CC(C)C)n(O)c1=O
inactive: dose: 12.5 mg/kg/injection, schedule: Q01DX005 (ip), vehicle: distilled water + Tween-80 95 % of control | dose: 25.0 mg/kg/injection, schedule: Q01DX005 (ip), vehicle: distilled water + Tween-80 103 % of control | dose: 50.0 mg/kg/injection, schedule: Q01DX005 (ip), vehicle: distilled water + Tween-80 101 % of control | dose: 100.0 mg/kg/injection, schedule: Q01DX005 (ip), vehicle: distilled water + Tween-80 100 % of control

COC(=O)NN(C(=O)OC)C1CCC2C1c1ccccc1N(C(=O)OC)N2C(=O)OC (stereo unspecified)
inactive: [8] 108 % of control | [9] 113 % of control | [10] 103 % of control

CCCCCCCCCCCCCCCn1nnnc1N
inactive: [11] 86 % of control | dose: 100.0 mg/kg/injection, schedule: Q01DX005 (ip), vehicle: saline with Tween-80 91 % of control | dose: 200.0 mg/kg/injection, schedule: Q01DX005 (ip), vehicle: saline with Tween-80 96 % of control

Fc1cccc2c(SCCCCCCSc3c4ccccc4nc4c(F)cccc34)c3ccccc3nc12
inactive: [8] 89 % of control | [9] 89 % of control | [10] 90 % of control

Cc1ccc(S(=O)(=O)/C=C/C(=O)c2ccco2)cc1
inactive: dose: 100.0 mg/kg/injection, schedule: Q04DX002 (ip), vehicle: saline 108 % of control | dose: 200.0 mg/kg/injection, schedule: Q04DX002 (ip), vehicle: saline 112 % of control | dose: 400.0 mg/kg/injection, schedule: Q04DX002 (ip), vehicle: saline 100 % of control

c1ccc2nc(NCCSSCCNc3cnc4ccccc4n3)cnc2c1
inactive: [2] 86 % of control | dose: 200.0 mg/kg/injection, schedule: Q01DX009 (ip), vehicle: saline with Tween-80 86 % of control | dose: 400.0 mg/kg/injection, schedule: Q01DX009 (ip), vehicle: saline with Tween-80 86 % of control

CSC(=N)c1cccc(OCCOc2ccccc2)c1
inactive: dose: 15.0 mg/kg/injection, schedule: Q01DX005 (ip), vehicle: Klucel (hydroxypropylcellulose) (HPC) 96 % of control | dose: 30.0 mg/kg/injection, schedule: Q01DX005 (ip), vehicle: Klucel (hydroxypropylcellulose) (HPC) 98 % of control | [8] 91 % of control | [5] 93 % of control | [9] 86 % of control | [6] 101 % of control | [10] 91 % of control | [7] 99 % of control

NC1(C(=O)NCSc2ccccc2)CC=CCC1 (stereo unspecified)
inactive: dose: 45.5 mg/kg/injection, schedule: Q01DX005 (ip), vehicle: Klucel (hydroxypropylcellulose) (HPC) 97 % of control | dose: 91.0 mg/kg/injection, schedule: Q01DX005 (ip), vehicle: Klucel (hydroxypropylcellulose) (HPC) 103 % of control | dose: 182.0 mg/kg/injection, schedule: Q01DX005 (ip), vehicle: Klucel (hydroxypropylcellulose) (HPC) 96 % of control

CC(O)CCOCCCBr (stereo unspecified)
inactive: dose: 50.0 mg/kg/injection, schedule: Q01DX005 (ip), vehicle: saline 100 % of control | dose: 100.0 mg/kg/injection, schedule: Q01DX005 (ip), vehicle: saline 102 % of control | dose: 200.0 mg/kg/injection, schedule: Q01DX005 (ip), vehicle: saline 102 % of control

CC1=NOCC(=O)N1
inactive: dose: 50.0 mg/kg/injection, schedule: Q01DX005 (ip), vehicle: distilled water + alcohol 106 % of control | dose: 100.0 mg/kg/injection, schedule: Q01DX005 (ip), vehicle: distilled water + alcohol 102 % of control | dose: 200.0 mg/kg/injection, schedule: Q01DX005 (ip), vehicle: distilled water + alcohol 105 % of control

CC(=O)NCCc1ccc2c(c1)OCO2
inactive: dose: 25.0 mg/kg/injection, schedule: Q01DX001 (ip), vehicle: saline + alcohol 105 % of control | dose: 50.0 mg/kg/injection, schedule: Q01DX001 (ip), vehicle: saline + alcohol 99 % of control | dose: 100.0 mg/kg/injection, schedule: Q01DX001 (ip), vehicle: saline + alcohol 98 % of control

Cc1cc2ccccc2c[n+]1CCCCCCCCI
inactive: dose: 6.25 mg/kg/injection, schedule: Q01DX005 (ip), vehicle: saline with Tween-80 110 % of control | dose: 12.5 mg/kg/injection, schedule: Q01DX005 (ip), vehicle: saline with Tween-80 115 % of control | dose: 25.0 mg/kg/injection, schedule: Q01DX005 (ip), vehicle: saline with Tween-80 110 % of control | [11] 108 % of control

O=C(NC(CO)C(=O)NC(Cc1ccc(O)cc1)C(=O)O)OCc1ccccc1 (stereo not drawn) (Cbz-Ser-Tyr-OH; configuration not given here)
inactive: dose: 50.0 mg/kg/injection, schedule: Q01DX005 (ip), vehicle: Klucel (hydroxypropylcellulose) (HPC) 98 % of control | dose: 100.0 mg/kg/injection, schedule: Q01DX005 (ip), vehicle: Klucel (hydroxypropylcellulose) (HPC) 100 % of control | dose: 200.0 mg/kg/injection, schedule: Q01DX005 (ip), vehicle: Klucel (hydroxypropylcellulose) (HPC) 101 % of control
